Measured values published in patent publication US20090247559A1 (Exelixis, Inc., priority 2007, published 2009).
Read-outs that look alike come from different tables or passages of the source.

Legend:
CDC7 = CDC7 (Homo sapiens, UniProt O00311); assay: CDC7 inhibition, biochemical chemiluminescence assay (Kinase Glo, IC50 determination)
Description: Characterization of CDC7 Inhibition in a Biochemical Chemiluminesence Assay (IC50 Determination):
The IC50 evaluation of compounds against the CDC7 enzyme was performed in a Chemiluminesence assay utilizing a Greiner 384-well white binding plate format. […] Upon addition of 10 μL of CDC-7 (GB) to the designated well plates and subsequent incubation for ten minutes at ambient temperature, 10 μL of ATP mix in Tris Base was added. Following an incubation period of 90 minutes at ambient temperature (24-27° C.), 20 μL of Kinase Glo (Promega) was added to measure kinase activity by quantitating the amount of ATP remaining in solution. The luminescence was measured following a Luciferase Protocol on either EnVision or Victor plate readers.

[1] = target: PIM (PIM-1, PIM-2, and/or PIM-3); assay: PIM-1, PIM-2 and PIM-3 inhibition, biochemical chemiluminescence assays (Kinase Glo, IC50 determination); settings: Table 1 activity class; PIM refers to PIM-1, PIM-2, and/or PIM-3; read-out: PIM IC50 (Activity B)
CK2 = CK2 (Homo sapiens, UniProt P68400); assay: CK2 inhibition, biochemical chemiluminescence holoenzyme assay (Kinase Glo, IC50 determination); settings: Table 1 activity class; symbol given only if active; read-out: CK2 IC50 (Activity C)
Chain of CK2 (P68400 whole entry): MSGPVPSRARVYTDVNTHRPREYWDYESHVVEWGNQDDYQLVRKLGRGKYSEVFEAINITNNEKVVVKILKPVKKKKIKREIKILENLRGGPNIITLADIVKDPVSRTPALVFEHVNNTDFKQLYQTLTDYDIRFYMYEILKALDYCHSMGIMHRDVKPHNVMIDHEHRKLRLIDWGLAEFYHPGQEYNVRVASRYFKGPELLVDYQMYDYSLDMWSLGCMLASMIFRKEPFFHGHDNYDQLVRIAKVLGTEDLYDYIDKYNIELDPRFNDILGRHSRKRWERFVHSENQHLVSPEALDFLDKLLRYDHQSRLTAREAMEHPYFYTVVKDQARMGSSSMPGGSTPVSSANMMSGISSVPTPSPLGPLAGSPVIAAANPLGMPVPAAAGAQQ
Chain of CK2 (P67870 whole entry partner): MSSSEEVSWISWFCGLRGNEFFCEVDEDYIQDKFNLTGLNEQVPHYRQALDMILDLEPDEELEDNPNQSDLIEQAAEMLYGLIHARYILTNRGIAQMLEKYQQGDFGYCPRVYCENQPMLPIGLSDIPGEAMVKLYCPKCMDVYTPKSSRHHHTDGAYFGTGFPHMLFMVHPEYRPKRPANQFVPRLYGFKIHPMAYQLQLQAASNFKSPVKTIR
Procedure, shortened: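 Holoenzyme CK2 assay; compounds pre-incubated with substrate and enzyme, then reacted 150 min at 24-27° C. Remaining ATP measured as luminescence with Kinase Glo, and IC50 derived from the signal.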

[2] = Table 1 activity class, symbol given only if active, read-out: CDC7 IC50 (Activity A)
[3] = compounds in Table 1, read-out: CDC7 IC50 value

Chain of CDC7 (O00311 whole entry): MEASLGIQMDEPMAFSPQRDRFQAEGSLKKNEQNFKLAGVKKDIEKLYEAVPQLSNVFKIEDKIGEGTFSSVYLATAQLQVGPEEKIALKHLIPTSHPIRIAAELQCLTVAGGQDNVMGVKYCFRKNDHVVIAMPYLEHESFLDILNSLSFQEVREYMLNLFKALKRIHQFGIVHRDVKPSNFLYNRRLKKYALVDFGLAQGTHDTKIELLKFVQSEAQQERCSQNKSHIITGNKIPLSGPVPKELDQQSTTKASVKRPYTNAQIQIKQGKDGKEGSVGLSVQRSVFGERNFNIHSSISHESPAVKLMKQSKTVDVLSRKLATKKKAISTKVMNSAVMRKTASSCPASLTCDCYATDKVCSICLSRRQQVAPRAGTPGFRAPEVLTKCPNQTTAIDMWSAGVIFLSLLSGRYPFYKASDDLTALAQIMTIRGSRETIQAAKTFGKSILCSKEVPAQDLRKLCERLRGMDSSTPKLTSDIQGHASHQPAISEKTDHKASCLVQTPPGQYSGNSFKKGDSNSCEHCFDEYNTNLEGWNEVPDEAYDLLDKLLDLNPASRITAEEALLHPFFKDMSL
Chain of CDC7 (Q9UBU7 whole entry partner): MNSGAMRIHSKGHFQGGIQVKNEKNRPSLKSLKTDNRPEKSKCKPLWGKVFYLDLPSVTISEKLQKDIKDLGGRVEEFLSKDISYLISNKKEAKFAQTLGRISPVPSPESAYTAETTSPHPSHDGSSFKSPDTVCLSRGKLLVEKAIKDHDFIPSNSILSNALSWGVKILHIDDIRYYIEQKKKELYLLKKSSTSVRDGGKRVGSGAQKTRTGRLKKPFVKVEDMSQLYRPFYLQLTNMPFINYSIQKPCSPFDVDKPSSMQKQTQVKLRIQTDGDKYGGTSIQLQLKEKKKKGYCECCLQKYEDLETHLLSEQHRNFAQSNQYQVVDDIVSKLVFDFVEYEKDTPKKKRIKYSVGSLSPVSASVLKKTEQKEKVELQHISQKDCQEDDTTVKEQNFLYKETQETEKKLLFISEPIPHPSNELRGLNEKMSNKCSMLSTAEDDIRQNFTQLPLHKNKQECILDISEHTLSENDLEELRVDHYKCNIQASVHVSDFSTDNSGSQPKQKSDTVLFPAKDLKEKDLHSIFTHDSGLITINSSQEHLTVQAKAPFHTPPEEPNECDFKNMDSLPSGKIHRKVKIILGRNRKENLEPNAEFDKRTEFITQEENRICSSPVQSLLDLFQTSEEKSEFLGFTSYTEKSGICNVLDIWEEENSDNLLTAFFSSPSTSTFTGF

O=c1[nH]c(CN2CC3CCC2C3O)nc2c1oc1ccc(Br)cc12 (racemic) [Compound 332, 8-bromo-2-((7-hydroxy-2-azabicyclo[2.2.1]heptan-2-yl)methyl)benzofuro[3,2-d]pyrimidin-4(3H)-one]
IC50 (CDC7; [2]): < 10 µM
IC50 (CDC7; [3]): < 0.1 µM
IC50 [1]: < 10 µM
IC50 (CK2): < 10 µM

COc1ccc2oc3c(=O)[nH]c(C4CCCN4)nc3c2c1 (stereo in doubt) [Compound 494, 8-(methyloxy)-2-[(2S)-pyrrolidin-2-yl][1]benzofuro[3,2-d]pyrimidin-4(3H)-one]
IC50 (CDC7; [2]): < 10 µM
IC50 [1]: < 10 µM
IC50 (CK2): < 10 µM

COc1ccc2oc3c(=O)[nH]c(C4CCCN4)nc3c2c1 (stereo in doubt) [Compound 495, 8-(methyloxy)-2-[(2R)-pyrrolidin-2-yl][1]benzofuro[3,2-d]pyrimidin-4(3H)-one]
IC50 (CDC7; [2]): < 10 µM
IC50 (CDC7; [3]): < 0.1 µM
IC50 [1]: < 10 µM
IC50 (CK2): < 10 µM

NC(CCc1ccccc1)c1nc2c(oc3ccc(Br)cc32)c(=O)[nH]1 (stereo in doubt) [Compound 537, 2-[(1S)-1-amino-3-phenylpropyl]-8-bromo[1]benzofuro[3,2-d]pyrimidin-4(3H)-one]
IC50 (CDC7; [2]): < 10 µM
IC50 [1]: < 10 µM
IC50 (CK2): < 10 µM

O=c1[nH]c(CN2CCCC2)nc2c1oc1ccc(Cl)cc12 [Compound 5, 8-chloro-2-(pyrrolidin-1-ylmethyl)[1]benzofuro[3,2-d]pyrimidin-4(3H)-one]
IC50 (CDC7; [2]): < 10 µM
IC50 (CDC7; [3]): < 0.1 µM
IC50 [1]: < 10 µM
IC50 (CK2): < 10 µM

O=c1[nH]c(CNc2cccnc2)nc2c1oc1ccc(Br)cc12 [Compound 13, 8-bromo-2-[(pyridin-3-ylamino)methyl][1]benzofuro[3,2-d]pyrimidin-4(3H)-one]
IC50 (CDC7; [2]): < 10 µM
IC50 [1]: < 10 µM
IC50 (CK2): < 10 µM

CN(C)C(=O)CN1CCN(Cc2nc3c(oc4ccc(Br)cc43)c(=O)[nH]2)CC1 [Compound 25, 2-{4-[(8-bromo-4-oxo-3,4-dihydro[1]benzofuro[3,2-d]pyrimidin-2-yl)methyl]piperazin-1-yl}-N,N-dimethylacetamide]
IC50 (CDC7; [2]): < 10 µM
IC50 [1]: < 10 µM
IC50 (CK2): < 10 µM

O=c1[nH]c(-c2ccc([N+](=O)[O-])cc2Cl)nc2c1oc1ccc(Br)cc12 [Compound 33, 8-Bromo-2-(2-chloro-4-nitrophenyl)[1]benzofuro[3,2-d]pyrimidin-4(3H)-one]
IC50 (CDC7; [2]): < 10 µM
IC50 [1]: < 10 µM
IC50 (CK2): < 10 µM

Nc1ccc(-c2nc3c(oc4ccc(Br)cc43)c(=O)[nH]2)c(Cl)c1 [Compound 34, 2-(4-Amino-2-chlorophenyl)-8-bromo[1]benzofuro[3,2-d]pyrimidin-4(3H)-one]
IC50 (CDC7; [2]): < 10 µM
IC50 [1]: < 10 µM
IC50 (CK2): < 10 µM

O=c1[nH]c(-c2ccccc2I)nc2c1oc1ccc(Br)cc12 [Compound 40, 8-bromo-2-(2-iodophenyl)[1]benzofuro[3,2-d]pyrimidin-4(3H)-one]
IC50 (CDC7; [2]): < 10 µM
IC50 [1]: < 10 µM
IC50 (CK2): < 10 µM

O=c1[nH]c(-c2ccncc2Br)nc2c1oc1ccc(Br)cc12 [Compound 43, 8-bromo-2-(3-bromopyridin-4-yl)[1]benzofuro[3,2-d]pyrimidin-4(3H)-one]
IC50 (CDC7; [2]): < 10 µM
IC50 [1]: < 10 µM
IC50 (CK2): < 10 µM

O=c1[nH]c(-c2ccccc2-n2ccnc2)nc2c1oc1ccc(Br)cc12 [Compound 48, 8-bromo-2-[2-(1H-imidazol-1-yl)phenyl][1]benzofuro[3,2-d]pyrimidin-4(3H)-one]
IC50 (CDC7; [2]): < 10 µM
IC50 [1]: < 10 µM
IC50 (CK2): < 10 µM

CC(C)(N)c1nc2c(oc3ccc(Cl)cc32)c(=O)[nH]1 [Compound 49, 2-(1-Amino-1-methylethyl)-8-chloro[1]benzofuro[3,2-d]pyrimidin-4(3H)-one]
IC50 (CDC7; [2]): < 10 µM
IC50 (CDC7; [3]): < 0.1 µM
IC50 [1]: < 10 µM
IC50 (CK2): < 10 µM

Cc1ccccc1-c1nc2c(oc3ccc(Br)cc32)c(=O)[nH]1 [Compound 60, 8-bromo-2-(2-methylphenyl)[1]benzofuro[3,2-d]pyrimidin-4(3H)-one]
IC50 (CDC7; [2]): < 10 µM
IC50 [1]: < 10 µM
IC50 (CK2): < 10 µM

O=c1[nH]c(-c2nccs2)nc2c1oc1ccc(Br)cc12 [Compound 86, 8-bromo-2-(1,3-thiazol-2-yl)[1]benzofuro[3,2-d]pyrimidin-4(3H)-one]
IC50 (CDC7; [2]): < 10 µM
IC50 [1]: < 10 µM
IC50 (CK2): < 10 µM

Cc1nccn1Cc1nc2c(oc3ccc(Br)cc32)c(=O)[nH]1 [Compound 100, 8-bromo-2-[(2-methyl-1H-imidazol-1-yl)methyl][1]benzofuro[3,2-d]pyrimidin-4(3H)-one]
IC50 (CDC7; [2]): < 10 µM
IC50 [1]: < 10 µM
IC50 (CK2): < 10 µM

O=C(O)C1CCN(Cc2nc3c(oc4ccc(Br)cc43)c(=O)[nH]2)C1 (stereo not shown) [Compound 103, 1-[(8-bromo-4-oxo-3,4-dihydro[1]benzofuro[3,2-d]pyrimidin-2-yl)methyl]pyrrolidine-3-carboxylic acid]
IC50 (CDC7; [2]): < 10 µM
IC50 (CDC7; [3]): < 0.1 µM
IC50 [1]: < 10 µM
IC50 (CK2): < 10 µM

O=c1[nH]c(-c2c(Cl)cncc2Cl)nc2c1oc1ccc(Br)cc12 [Compound 107, 8-bromo-2-(3,5-dichloropyridin-4-yl)[1]benzofuro[3,2-d]pyrimidin-4(3H)-one]
IC50 (CDC7; [2]): < 10 µM
IC50 [1]: < 10 µM
IC50 (CK2): < 10 µM

O=C(NCc1ccccc1)C1CCN(Cc2nc3c(oc4ccc(Br)cc43)c(=O)[nH]2)C1 (stereo not shown) [Compound 266, 1-[(8-bromo-4-oxo-3,4-dihydro[1]benzofuro[3,2-d]pyrimidin-2-yl)methyl]-N-(phenylmethyl)pyrrolidine-3-carboxamide]
IC50 (CDC7; [2]): < 10 µM
IC50 (CK2): < 10 µM

O=c1[nH]c(C2CNCCO2)nc2c1oc1ccc(Br)cc12 (stereo not shown) [Compound 298, 8-Bromo-2-morpholin-2-yl[1]benzofuro[3,2-d]pyrimidin-4(3H)-one]
IC50 (CDC7; [2]): < 10 µM
IC50 (CDC7; [3]): < 0.1 µM
IC50 (CK2): < 10 µM

NC(Cc1ccc(OCc2ccccc2)cc1)c1nc2c(oc3ccc(Br)cc32)c(=O)[nH]1 (stereo not shown) [Compound 536, 2-(1-amino-2-{4-[(phenylmethyl)oxy]phenyl}ethyl)-8-bromo[1]benzofuro[3,2-d]pyrimidin-4(3H)-one]
IC50 (CDC7; [2]): < 10 µM
IC50 [1]: < 10 µM

COc1ccc(CC(N)c2nc3c(oc4ccc(Br)cc43)c(=O)[nH]2)cc1 (stereo not shown) [Compound 539, 2-{1-amino-2-[4-(methyloxy)phenyl]ethyl}-8-bromo[1]benzofuro[3,2-d]pyrimidin-4(3H)-one]
IC50 (CDC7; [2]): < 10 µM
IC50 [1]: < 10 µM

NC(c1nc2c(oc3ccc(Br)cc32)c(=O)[nH]1)C1CCCCC1 (stereo not shown) [Compound 541, 2-[amino(cyclohexyl)methyl]-8-bromo[1]benzofuro[3,2-d]pyrimidin-4(3H)-one]
IC50 (CDC7; [2]): < 10 µM
IC50 (CDC7; [3]): < 0.1 µM
IC50 [1]: < 10 µM

NC1(c2nc3c(oc4ccc(Br)cc43)c(=O)[nH]2)CCCCC1 [Compound 542, 2-(1-aminocyclohexyl)-8-bromo[1]benzofuro[3,2-d]pyrimidin-4(3H)-one]
IC50 (CDC7; CDC7 IC50 (Activity A), Table 1 activity class, symbol given only if active): < 10 µM
IC50 (CDC7; CDC7 IC50 value, compounds in Table 1): < 0.1 µM
IC50 (CK2): < 10 µM

O=c1[nH]c(-c2ccc(NCC3CCCNC3)cc2Cl)nc2c1oc1ccc(Br)cc12 (stereo not shown) [Cpd 159, 8-bromo-2-{2-chloro-4-[(piperidin-3-ylmethyl)amino]phenyl}[1]benzofuro[3,2-d]pyrimidin-4(3H)-one]
IC50 (CDC7; [2]): < 10 µM
IC50 (CK2): < 10 µM
